Laboratory results as given in patent publication US20260101916A1, “SWEETENED FIBER AND METHODS THEREOF” (ZeroIN Foods Inc., priority 2022, published 2026).

Columns and labels:
Format in all cases: in vivo, human
[1] = Comparative sensory study: sweetened fiber vs mixture of sweetener and fiber vs sweetener alone (Example 8); details: 9-point hedonic scale, 10% in water, N=12, FIG. 6
Description: The sensory characteristics of the sweetened fiber of the present disclosure were evaluated against a simple mixture of dietary fiber and stevia extract or stevia extract alone. The preference towards the sweetened fiber of the present disclosure, a mixture of dietary fiber and stevia extract, or stevia extract alone was determined. Any sensory difference between the sweetened fiber of the present disclosure versus a mixture of dietary fiber and stevia extract was evaluated.
Study design: randomized crossover. Twelve adults were recruited for the study. Samples were evaluated for pleasantness using 9-point hedonic scales (Peryam, D. R., Girardot, N. F. (1952). Advanced taste test method. Food Engineering, 24, 58-61, 194.). Unstructured scales such as visual analogue scales (VAS) are also used for the sensory evaluation of food (Baten, W. D. (1946). Organoleptic tests pertaining to apples and pears. Journal of Food Science, 11, 84-94.). The intensity of off-taste, bitterness and sweet aftertaste sweetness were determined using a 10-point scale. […]
Data analysis: The normality of the data was evaluated using D'Agostino & Pearson omnibus normality test. If the data didn't follow a normal distribution, the statistical significance of preference and intensity was assessed with the Kruskal-Wallis test using an alpha criterion of 5%. […]

[2] = Sensory evaluation: sucrose vs sweetened fiber vs stevia extract (Example 9); details: score 1 to 100; 10% sucrose, 10% sweet fiber, 0.05% RebM; FIG. 7
Description: A sensory evaluation session was conducted at BioFoodTech, to determine the taste difference between sucrose, the sweetened fiber of the present disclosure and stevia extract solutions. A group of twelve panelists formed a panel for the sensory evaluation. The ranking test measured the overall difference and intensity score for sensory attributes, including the strength of flavor, bitterness, liquorice taste and off-flavor.
A group of experienced panelists from BioFoodTech formed a panel for a sensory evaluation session to determine the quality difference between the sweet product samples.
Three 250 mL samples were prepared (10% solutions of sucrose, 10% the sweetened fiber of the present disclosure and 0.05% solution of Rebaudioside M (RebM). A sensory code consisting of a random 3-digit number was assigned to each sample.
Twelve experienced panelists were divided into two groups. A complete block design was chosen for the sensory evaluation of the […], including a ranking test used to determine the overall difference and intensity scoring for four […] attributes (strength of flavor, bitterness, liquorice taste and off-flavor). The four coded samples were presented to each panelist in a balanced order throughout the evaluation.
In the individual attributes evaluation, the panelists were asked to quantify the difference of specific attributes among the four samples by scoring from 1 to 100 (1 for none and 100 for the strongest, see FIG. 7) to reflect the intensity of the attribute best.

[3] = Double-blinded randomized crossover sensory study: sweetened fiber vs sucrose (Example 10); details: 10% solution
Description: The sensory characteristics of an example of the sweetened fiber of the present disclosure were evaluated and compared to those of sucrose. Any preference towards the exemplary sweetened fiber of the present disclosure or sucrose solutions was determined. The sensory acceptance of the exemplary sweetened fiber of the present disclosure and sucrose was evaluated. Study design: double-blinded, randomized crossover. Sixty adults (18-65 years old, 30 males and 30 females) were recruited for the study. […] Samples were evaluated for pleasantness, taste, flavour, sweetness, and mouthfeel using 9-point hedonic scales ([…]. (1952). Advanced taste test method. Food Engineering, 24, 58-61, 194). […] The intensity of sweetness, bitterness, and metallic taste was determined using a 100 mm Visual Analogue Scale (VAS). […] Data analysis: The preference towards either blinded samples of 10% solution of Sucrose or 10% solution of the exemplary sweetened fiber of the present disclosure was determined with a forced paired preference test ([…]., Heymann, H. (2010). Sensory evaluation of food. Springer, New York, NY.). […] If there was an effect of sex (P≤0.05), the data was analyzed separately for males and females. If there was no effect of sex (P>0.05), the pooled data for males and females was analyzed with the Friedman test followed by Dunn's multiple comparisons. […]

[4] = Sensory testing by a panel of twelve tasters (Example 4); details: 10% solution
Description: The taste of the sweetened fiber of the present disclosure prepared according to Example 1 was assessed by an external third party using a panel of tasters. A group of twelve panelists formed a panel for the sensory evaluation. The ranking test was used to measure the overall difference and intensity score for four sensory attributes, flavor, aftertaste, and mouthfeel. Each panelist evaluated all four samples. […] Sample Preparation: Two 250 mL samples were prepared (10% solutions of sucrose (control) and corn sweetened fiber of Example 1-1. A sensory code consisting of a random 3-digit number was assigned to each sample. Taste Session: The sensory evaluation was carried out at BioFoodTech's Sensory Lab. Twelve experienced panelists were divided into two groups. A complete block design was chosen for the sensory evaluation of the four samples, including a ranking test used to determine the overall difference. Statistical Analysis for the Data: For the individual attributes, Analysis of Variance (ANOVA) and the Tukey-Kramer HSD test were used to analyze the difference among sample means of individual attributes at a 5% significance level. For the Ranking test, a Friedman-type statistic was used to determine if there was a statistically significant difference among samples at a 5% significance level. All statistical analyses were done using the JMP®8 (SAS Institute Inc., Cary, NC).

Row | SMILES | Pleasantness [1] | Mean score, bitterness [2] | Mean score, liquorice taste [2] | Mean score, off-flavor [2] | Mean score, strength of flavor [2] | Mean acceptance values on hedonic scales [3] | Rank mean (ranking taste preference) [4] | RankSum (ranking taste preference) [4] | Mouthfeel ([4]; n = 12) | Off-flavour ([4]; n = 12) | Sweetness ([4]; n = 12) | Taste preference ([4]; n = 12)
1 | C=C1C[C@@]23CC[C@H]4[C@@](C)(CCC[C@@]4(C)C(=O)O[C@@H]4O[C@H](CO)[C@@H](O)[C@H](O[C@@H]5O[C@H](CO)[C@@H](O)[C@H](O)[C@H]5O)[C@H]4O[C@@H]4O[C@H](CO)[C@@H](O)[C@H](O)[C@H]4O)[C@@H]2CC[C@]1(O[C@@H]1O[C@H](CO)[C@@H](O)[C@H](O[C@@H]2O[C@H](CO)[C@@H](O)[C@H](O)[C@H]2O)[C@H]1O[C@@H]1O[C@H](CO)[C@@H](O)[C@H](O)[C@H]1O)C3 [Rebaudioside M] | no differences | highest | highest | highest | highest | – | – | – | – | – | – | –
2 | OC[C@H]1O[C@@](CO)(O[C@H]2O[C@H](CO)[C@@H](O)[C@H](O)[C@H]2O)[C@@H](O)[C@@H]1O [sucrose] | – | – | – | – | – | neutral or above the neutral | 2.58 | 31 | 73% | 0% | 100% | 98%
